Reference: patent US5055487A, “Novel anti-fungal compounds” (Merck & Co., Inc., priority 1990, dated 1991)
Converted amounts (≈) assume the structure as drawn.

Assays:
Format in all cases: cell-based
[1] = tested on: A. niger MF442; assay: Inhibitor dilution assay in microtiter format, filamentous fungi: A. niger MF442; conditions: Aspergillus niger; A. niger MF442, 42 hours, 28° C.; read-out: Minimum Inhibitory Concentration
Protocol: (§1) The compounds are particularly active towards filamentous fungi and yeasts including Candida albicans and Crypt. neoformans. The sensitivity of filamentous fungi and yeast was determined using inhibitor dilution assays in microtiter format. The compounds were dissolved in DMSO at 2 mg/ml and serially diluted in 0.1 M phosphate buffer, pH 7.0 in the microtiter dish from 100 to 0.006 μg/ml. A standardized spore suspension for testing the filamentous fungi was prepared by inoculating Antibiotic Medium #3 containing 1.5% agar with spores such that 1.5×10^3 colony forming units were added per we11. The microtiter wells were filled with 50 μl of buffer containing compound and 50 μl of inoculated medium. The sensitivity of yeasts was determined by inoculating yeast nitrogen base containing 1% dextrose (YNB/G) with aliquots of an overnight yeast culture grown in Yeast Morphology (YM) media at 35° C. and diluting in YNB/G to yield a final concentration of 1.5-7.5×10^3 colony forming units/well. One hundred fifty μl of inoculated media was added per well. To test the sensitivity of yeast, compound was solubilized in 10 percent aqueous DMSO at 2.56 mg/ml. The compound was diluted serially in YNB/G from 128 to 0.06 μg/ml. The wells were filled with 150 μl of drug containing media. […]

[2] = tested on: Fus. oxysproum MF4014; assay: Inhibitor dilution assay in microtiter format, filamentous fungi: Fus. oxysproum MF4014; conditions: Fus. oxysproum MF4014, 42 hours, 28° C.; read-out: Minimum Inhibitory Concentration
Protocol: as §1

[3] = tested on: C. parapsilosis MY1010; assay: Inhibitor dilution assay in microtiter format, yeast MIC: C. parapsilosis MY1010; conditions: Lodderomyces parapsilosis; C. parapsilosis MY1010, 24 to 48 hours, 35° C.; read-out: Minimum Inhibitory Concentration
Protocol: as §1

[4] = tested on: C. albicans MY1055; assay: Minimum fungicidal concentration, yeast: C. albicans MY1055; conditions: Candida albicans, no growth or no more than three colonies
Protocol: as §1

[5] = tested on: C. tropialis MY1012; assay: Minimum fungicidal concentration, yeast: C. tropialis MY1012; conditions: no growth or no more than three colonies
Protocol: as §1

[6] = tested on: Crypt. neoformans MY1051; assay: Minimum fungicidal concentration, yeast: Crypt. neoformans MY1051; conditions: Cryptococcus neoformans, no growth or no more than three colonies
Protocol: as §1

[7] = tested on: A. fumigatus MF4839; assay: Inhibitor dilution assay in microtiter format, filamentous fungi: A. fumigatus MF4839; conditions: Aspergillus fumigatus; A. fumigatus MF4839, 42 hours, 28° C.; read-out: Minimum Inhibitory Concentration
Protocol: as §1

[8] = tested on: Coch. miyabeanus MF4626; assay: Inhibitor dilution assay in microtiter format, filamentous fungi: Coch. miyabeanus MF4626; conditions: Bipolaris oryzae, MF4626, 42 h, read-out: Minimum Inhibitory Concentration
Protocol: as §1

[9] = tested on: C. albicans MY1055; assay: Inhibitor dilution assay in microtiter format, yeast MIC: C. albicans MY1055; conditions: Candida albicans; C. albicans MY1055, 24 to 48 hours, 35° C.; read-out: Minimum Inhibitory Concentration
Protocol: as §1

[10] = tested on: A. flavus MF383; assay: Inhibitor dilution assay in microtiter format, filamentous fungi: A. flavus MF383; conditions: Aspergillus flavus; A. flavus MF383, 42 hours, 28° C.; read-out: Minimum Inhibitory Concentration
Protocol: as §1

[11] = tested on: Crypt. neoformans MY1051; assay: Inhibitor dilution assay in microtiter format, yeast MIC: Crypt. neoformans MY1051; conditions: Cryptococcus neoformans; Crypt. neoformans MY1051, 24 to 48 hours, 35° C.; read-out: Minimum Inhibitory Concentration
Protocol: as §1

[12] = tested on: C. tropicalis MY1012; assay: Inhibitor dilution assay in microtiter format, yeast MIC: C. tropicalis MY1012; conditions: Candida tropicalis; C. tropicalis MY1012, 24 to 48 hours, 35° C.; read-out: Minimum Inhibitory Concentration
Protocol: as §1

[13] = tested on: C. parasilosos MY1010; assay: Minimum fungicidal concentration, yeast: C. parasilosos MY1010; conditions: no growth or no more than three colonies
Protocol: as §1

[14] = tested on: Pen. italicum MF2819; assay: Inhibitor dilution assay in microtiter format, filamentous fungi: Pen. italicum MF2819; conditions: Penicillium italicum; Pen. italicum MF2819, 42 hours, 28° C.; read-out: Minimum Inhibitory Concentration
Protocol: as §1

[15] = tested on: T. Mentagrophytes MF4864; assay: Inhibitor dilution assay in microtiter format, filamentous fungi: T. Mentagrophytes MF4864; conditions: Trichophyton mentagrophytes; T. Mentagrophytes MF4864, 42 hours, 28° C.; read-out: Minimum Inhibitory Concentration
Protocol: as §1

`CC=CCCCCC=CCCCCC(=O)OC1C(O)C2(CCC(C)C(O)C(C)CC=Cc3ccccc3)OC(C(=O)O)C(O)(C(=O)O)C1(C(=O)O)O2` (stereo not shown) [Compound A] gave an MIC [1] of 100 mg/L (≈ 137 µM), an MIC [2] of over 100 mg/L and an MIC [3] of 4 mg/L (≈ 5.47 µM). It also gave an MFC [4] of 4 mg/L (≈ 5.47 µM), an MFC [5] of 1 mg/L (≈ 1.37 µM) and an MFC [6] of 2 mg/L (≈ 2.74 µM). For the same compound, the MIC [7] was 0.098 mg/L (≈ 0.134 µM), the MIC [8] was 1.6 mg/L (≈ 2.19 µM) and the MIC [9] was 8 mg/L (≈ 10.9 µM). It also gave an MIC [10] of 0.098 mg/L (≈ 0.134 µM), an MIC [11] of 4 mg/L (≈ 5.47 µM) and an MIC [12] of 4 mg/L (≈ 5.47 µM). For the same compound, the MFC [13] was 1 mg/L (≈ 1.37 µM) and the MIC [14] was 0.025 mg/L (≈ 0.0342 µM).
`CC=CCCCCC=CCCCCC(=O)OC1C(O)C2(CCC(C)C(O)C(C)CC=Cc3ccccc3)OC(C(=O)OC)C(O)(C(=O)OC)C1(C(=O)OC)O2` (stereo not shown) [Compound B] was tested, and the MIC [15] was over 128 mg/L, the MIC [3] was over 128 mg/L and the MFC [4] was over 128 mg/L. The MFC [5] was over 128 mg/L, the MFC [6] was over 128 mg/L and the MIC [7] was over 128 mg/L. The MIC [9] was over 128 mg/L, the MIC [10] was over 128 mg/L and the MIC [11] was over 128 mg/L. The MIC [12] was over 128 mg/L and the MFC [13] was over 128 mg/L.
